Measurements published in ChEMBL document CHEMBL1201862, “PubChem BioAssay data set” (2004).
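Values below derive from 48-hour exposures of cells grown in 96-well plates, with endpoints linearly interpolated between the two concentrations bracketing the appropriate inhibition level. Abbreviation: GI50, concentration required for 50% inhibition of growth.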 The source made the active and inactive calls. No stated cut-off is given here; in the data, active = GI50 up to about 1.1 µM and inactive = higher.

Legend:
Experiment in all cases: inhibition of tumour cell growth, NCI panel, 48 h
A498 = tested on: A498
A549 = tested on: A549
CAKI-1 = tested on: CAKI-1
CCRF-CEM = tested on: CCRF-CEM
COLO 205 = tested on: COLO 205
DLD-1 = tested on: DLD-1
DMS-114 = tested on: DMS-114
DMS-273 = tested on: DMS-273
EKVX = tested on: EKVX
HCC 2998 = tested on: HCC 2998
HCT-116 = tested on: HCT-116
HCT-15 = tested on: HCT-15
HL-60 = tested on: HL-60
HOP-18 = tested on: HOP-18
HOP-62 = tested on: HOP-62
HOP-92 = tested on: HOP-92
HT-29 = tested on: HT-29
IGROV-1 = tested on: IGROV-1
K562 = tested on: K562
KM-20L2 = tested on: KM-20L2
KM12 = tested on: KM12
LOX IMVI = tested on: LOX IMVI
M19-MEL = tested on: M19-MEL
MCF7 = tested on: MCF7
MOLT-4 = tested on: MOLT-4
Malme-3M = tested on: Malme-3M
NCI-H23 = tested on: NCI-H23
NCI-H460 = tested on: NCI-H460
NCI-H522 = tested on: NCI-H522
NCI/ADR-RES = tested on: NCI/ADR-RES
OVCAR-3 = tested on: OVCAR-3
OVCAR-4 = tested on: OVCAR-4
OVCAR-5 = tested on: OVCAR-5
OVCAR-8 = tested on: OVCAR-8
RPMI-8226 = tested on: RPMI-8226
RXF 393 = tested on: RXF 393
SF-268 = tested on: SF-268
SF-295 = tested on: SF-295
SF-539 = tested on: SF-539
SK-MEL-28 = tested on: SK-MEL-28
SK-MEL-2 = tested on: SK-MEL-2
SK-MEL-5 = tested on: SK-MEL-5
SK-OV-3 = tested on: SK-OV-3
SN12C = tested on: SN12C
SNB-19 = tested on: SNB-19
SNB-75 = tested on: SNB-75
SNB-78 = tested on: SNB-78
SW-620 = tested on: SW-620
U-251 = tested on: U-251
UACC-257 = tested on: UACC-257
UACC-62 = tested on: UACC-62
UO-31 = tested on: UO-31
XF498 = tested on: XF498
786-0 = tested on: 786-0
ACHN = tested on: ACHN
LXFL 529 = tested on: LXFL 529
M14 = tested on: M14
NCI-H226 = tested on: NCI-H226
TK-10 = tested on: TK-10

Measured: GI50

NC(=O)NN=C(CS)CS
active: HL-60 0.41 µM | HOP-62 0.492 µM | XF498 < 0.01 µM
inactive: A498 14.9 µM | A549 22 µM | CAKI-1 23.6 µM | CCRF-CEM 36.9 µM | COLO 205 23.1 µM | DLD-1 34 µM | DMS-114 30.5 µM | DMS-273 20 µM | EKVX 18.8 µM | HCC 2998 31 µM | HCT-116 38.5 µM | HOP-18 26.7 µM | HOP-92 21.9 µM | HT-29 20.7 µM | IGROV-1 39.1 µM | K562 51.1 µM | KM-20L2 19.8 µM | KM12 33.2 µM | LOX IMVI 15.7 µM | M19-MEL 17.5 µM | MCF7 24 µM | MOLT-4 23.7 µM | Malme-3M 19.7 µM | NCI-H23 22.7 µM | NCI-H460 23.7 µM | NCI-H522 22.6 µM | NCI/ADR-RES 25.6 µM | OVCAR-3 23.3 µM | OVCAR-4 25.4 µM | OVCAR-5 24.1 µM | OVCAR-8 27.5 µM | RPMI-8226 46.1 µM | RXF 393 40.2 µM | SF-268 34.8 µM | SF-295 23.7 µM | SF-539 21.8 µM | SK-MEL-28 30.6 µM | SK-MEL-2 20.8 µM | SK-MEL-5 17 µM | SK-OV-3 89.3 µM | SN12C 24.2 µM | SNB-19 23.1 µM | SNB-75 33 µM | SNB-78 41 µM | SW-620 28.4 µM | U-251 21.6 µM | UACC-257 19.5 µM | UACC-62 25.3 µM | UO-31 18.8 µM
22.8 µM: HCT-15

Cc1c2ncccc2c(C)c2c1[nH]c1ccccc12
inactive: 786-0 9.38 µM | A498 12.5 µM | A549 6.78 µM | ACHN 12.9 µM | CAKI-1 9.23 µM | CCRF-CEM 10.2 µM | COLO 205 13.1 µM | DLD-1 10.1 µM | DMS-273 4.84 µM | EKVX 16 µM | HCC 2998 12.3 µM | HCT-116 5.27 µM | HOP-18 14.2 µM | HOP-62 11.8 µM | HOP-92 7.98 µM | HT-29 11.3 µM | IGROV-1 12.3 µM | K562 14.5 µM | KM-20L2 7.11 µM | KM12 10.3 µM | LOX IMVI 5.66 µM | LXFL 529 11 µM | M14 17.6 µM | M19-MEL 13.4 µM | MOLT-4 2.02 µM | Malme-3M 15.1 µM | NCI-H226 12.7 µM | NCI-H23 11.1 µM | NCI-H460 5.18 µM | NCI-H522 13 µM | OVCAR-3 14.3 µM | OVCAR-4 18 µM | OVCAR-5 14.1 µM | OVCAR-8 10.5 µM | RPMI-8226 6.59 µM | RXF 393 13 µM | SF-268 13.8 µM | SF-295 8.57 µM | SF-539 13.2 µM | SK-MEL-28 15.6 µM | SK-MEL-2 22.9 µM | SK-OV-3 17.4 µM | SN12C 11.5 µM | SNB-19 13.8 µM | SNB-75 10.6 µM | SNB-78 14.6 µM | SW-620 6.79 µM | TK-10 17.7 µM | U-251 12.2 µM | UACC-257 16.6 µM | UACC-62 15.3 µM | UO-31 > 10 µM | XF498 12.8 µM
7.24 µM: HCT-15

N#CC(C(=O)CCC(=O)Nc1ccc(Cl)c(Cl)c1)c1ccccc1 (stereo unspecified)
> 100 µM: HCT-15
inactive: 786-0 > 100 µM | A498 > 100 µM | A549 > 100 µM | ACHN > 100 µM | CAKI-1 > 100 µM | DLD-1 > 100 µM | DMS-114 > 100 µM | DMS-273 > 100 µM | EKVX > 100 µM | HCC 2998 > 100 µM | HCT-116 > 100 µM | HL-60 > 100 µM | HOP-18 > 100 µM | HOP-62 > 100 µM | HOP-92 > 100 µM | HT-29 > 100 µM | IGROV-1 > 100 µM | K562 > 100 µM | KM-20L2 > 100 µM | KM12 > 100 µM | M14 > 100 µM | M19-MEL > 100 µM | MOLT-4 > 100 µM | Malme-3M > 100 µM | NCI-H226 > 100 µM | NCI-H23 > 100 µM | OVCAR-3 > 100 µM | OVCAR-4 > 100 µM | OVCAR-5 > 100 µM | OVCAR-8 > 100 µM | RPMI-8226 > 100 µM | RXF 393 > 100 µM | SF-268 > 100 µM | SF-295 > 100 µM | SF-539 > 100 µM | SK-MEL-28 > 100 µM | SK-MEL-2 > 100 µM | SK-MEL-5 > 100 µM | SN12C > 100 µM | SNB-19 > 100 µM | SNB-75 > 100 µM | SNB-78 > 100 µM | SW-620 > 100 µM | U-251 > 100 µM | UACC-257 > 100 µM | UACC-62 > 100 µM | UO-31 > 100 µM | XF498 > 100 µM
